Assay results from ChEMBL document CHEMBL3792353, “Differentiation of ROMK potency from hERG potency in the phenacetyl piperazine series through heterocycle incorporation” (Bioorg Med Chem Lett, 2016).

Assays:
Settings in all cases: in vivo
Rattus norvegicus = assay: Dose normalized AUC in Sprague-Dawley rat at 2 mg/kg, po; format: ADME, organism-based
[1] = Half life of compound in Sprague-Dawley rat at 1 mg/kg, iv and 2 mg/kg, po; format: ADME, organism-based
[2] = Oral bioavailability in Sprague-Dawley rat at 2 mg/kg; format: ADME, organism-based
[3] = Half life of compound in rhesus monkey at 0.25 mg/kg, iv and 0.5 mg/kg, po; format: ADME, organism-based, Macaca mulatta
Canis familiaris = assay: fCmax in vagotomized beagle dog at 10 mg/kg, iv administered as cumulative dose; format: ADME, organism-based, Canis lupus familiaris
[4] = Oral bioavailability in rhesus monkey at […]; format: ADME, organism-based, Macaca mulatta
[5] = Half life of compound in beagle dog at 0.5 mg/kg, iv; format: ADME, organism-based, Canis lupus familiaris
Rhesus monkey = assay: Dose normalized AUC in rhesus monkey at 0.5 mg/kg, po; format: ADME, organism-based, Macaca mulatta

Row | SMILES | AUC/dose (Rattus norvegicus) | half-life [1] | bioavailability [2] | half-life [3] | fCmax (Canis familiaris) | bioavailability [4] | half-life [5] | AUC/dose (Rhesus monkey)
1 | O=C1OCc2cc(CCN3CCN(C(=O)Cc4ccc(-n5cnnn5)cc4)CC3)ccc21 | 0.067 µM·kg·h/mg | 9.6 min | – | – | – | – | – | –
2 | Cc1c(C(C)CN2CCN(C(=O)Cc3ccc(-n4cnnn4)nc3)CC2)ccc2c1COC2=O (racemic) | 0.45 µM·kg·h/mg | 57.6 min | 25% | – | – | – | – | –
3 | Cc1c(CCN2CCN(C(=O)Cc3ccc(-n4cnnn4)nc3)CC2)ccc2c1COC2=O | 0.84 µM·kg·h/mg | 26.4 min | 38% | 66 min | 21 µM | < 1% | 78 min | 0.001 µM·kg·h/mg
4 | Cc1cc(-n2cnnn2)cnc1CC(=O)N1CCN(CCc2ccc3c(c2C)COC3=O)CC1 | 0.35 µM·kg·h/mg | 19.8 min | 18% | – | – | – | – | –
5 | Cc1c(C(F)CN2CCN(C(=O)Cc3ccc(-n4cnnn4)nc3)CC2)ccc2c1COC2=O (racemic) | 0.31 µM·kg·h/mg | 21 min | 46% | – | – | – | – | –
